The source of these data is ChEMBL document CHEMBL1138792, “Successful virtual screening for a submicromolar antagonist of the neurokinin-1 receptor based on a ligand-supported homology model” (J Med Chem, 2004).

Sequence of Substance-P receptor (P25103 whole entry): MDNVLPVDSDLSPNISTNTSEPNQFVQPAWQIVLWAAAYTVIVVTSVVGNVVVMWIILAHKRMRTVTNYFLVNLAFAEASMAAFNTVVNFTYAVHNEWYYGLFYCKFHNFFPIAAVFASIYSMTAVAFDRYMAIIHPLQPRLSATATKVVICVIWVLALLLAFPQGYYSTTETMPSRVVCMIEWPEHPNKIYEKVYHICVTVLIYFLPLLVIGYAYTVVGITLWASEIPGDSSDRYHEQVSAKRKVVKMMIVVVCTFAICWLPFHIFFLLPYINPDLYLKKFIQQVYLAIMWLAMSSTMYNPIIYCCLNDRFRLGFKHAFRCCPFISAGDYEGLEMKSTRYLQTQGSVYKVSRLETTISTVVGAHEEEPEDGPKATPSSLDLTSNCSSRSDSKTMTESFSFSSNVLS

The first assay concerns the target Substance-P receptor (Homo sapiens, UniProt P25103). In words: Inhibition of substance P binding to Tachykinin receptor 1 in Chinese hamster ovary cells. The class given is cell-based.
Details: not given
As a reminder, the IC50 is the concentration that gives 50% inhibition. High values mean weaker potency, low ones greater potency. For `Cc1cc(C)cc(COC(=O)[C@H](N)Cc2c[nH]c3ccccc23)c1`, the IC50 was 1530 nM.

`NC(COCc1ccccc1)C(c1ccccc1)c1ccccc1` (centres undefined) had an IC50 of 400 nM. Still for that read-out and setting: next, `CC(=O)NC(Cc1c[nH]c2ccccc12)C(=O)OCc1cc(C)cc(C)c1` (centres undefined): 67 nM. Same read-out and setting: next, `N[C@H](Cc1c[nH]c2ccccc12)C(=O)OCc1ccccc1`: more than 10000 nM; `COc1ccc(-n2cnnn2)cc1CN[C@H]1CCCN[C@H]1c1ccccc1`: 0.06 nM; `O=C(CSc1nnc(-c2ccncc2)n1-c1ccccc1)Nc1cccc(Cl)c1`: 250 nM. In turn, `NC(=O)CNC(COCc1cc(C(F)(F)F)cc(C(F)(F)F)c1)C(c1ccccc1)c1ccccc1` (stereo in doubt; 5) returned an IC50 of 0.53 nM. Turning to `FC(F)(F)c1cc(COCC2(c3ccccc3)CCNCC2)cc(C(F)(F)F)c1`, the IC50 was found to be 1 nM.

The assay is the same for the next values; noted with them: ovary.
In the case of `NC(=O)CNC(COCc1cc(C(F)(F)F)cc(C(F)(F)F)c1)C(c1ccccc1)c1ccccc1` (stereo in doubt; 16), the IC50 amounted to 0.53 nM.
